The source of these data is patent US20170087158A1, “JANUS KINASE INHIBITORS FOR TREATMENT OF DRY EYE AND OTHER EYE RELATED DISEASES” (Incyte Corporation, priority 2008, published 2017).

Assay [1] relates to NOD mouse model of autoimmune type 1 diabetes. The settings on record: Cetkovic-Cvrlje et al. 2003; cited from earlier work.
Assay [2] has as its system myeloid dendritic cells (DCs). The settings on record: CD40-induced maturation of myeloid DCs; Saemann et al. 2003; cited from earlier work.

Procedure for JAK: Compounds herein are tested for inhibitory activity of JAK targets according to the following in vitro assay described in Park et al., Analytical Biochemistry 1999, 269, 94-104. The catalytic domains of human JAK1 (a.a. 837-1142), Jak2 (a.a. 828-1132) and Jak3 (a.a. 781-1124) with an N-terminal His tag are expressed using baculovirus in insect cells and purified. The catalytic activity of JAK1, JAK2 or JAK3 is assayed by measuring the phosphorylation of a biotinylated peptide. The phosphorylated peptide is detected by homogenous time resolved fluorescence (HTRF). IC50s of compounds is measured for each kinase in the reactions that contain the enzyme, ATP and 500 nM peptide in 50 mM Tris (pH 7.8) buffer with 100 mM NaCl, 5 mM DTT, and 0.1 mg/mL (0.01%) BSA. The ATP concentration in the reactions is 90 μM for Jak1, 30 μM for Jak2 and 3 μM for Jak3. Reactions are carried out at room temperature for 1 hr and then stopped with 20 μL 45 mM EDTA, 300 nM SA-APC, 6 nM Eu-Py20 in assay buffer (Perkin Elmer, Boston, Mass.). Binding to the Europium labeled antibody takes place for 40 minutes and HTRF signal is measured on a Fusion plate reader (Perkin Elmer, Boston, Mass.).

On to `N#CC[C@H](C1CCCC1)n1cc(-c2ncnc3[nH]ccc23)cn1` (mixture of isomers) [Example 67, (3R)- and (3S)-3-Cyclopentyl-3-[4-(7H-pyrrolo[2,3-d]pyrimidin-4-yl)-1H-pyrazol-1-yl]propanenitrile], for which the JAK inhibitor activity result with JAK (qualitative, b1163: IC50 of 10 μM or less for any JAK target (JAK1, JAK2, JAK3) is considered active) is “active JAK inhibitors”.

Turning to `N#CCC(C1CCCC1)n1cc(-c2ncnc3[nH]ccc23)cn1` (single isomer, unassigned; peak 3) [Example 67 second peak, 3-Cyclopentyl-3-[4-(7H-pyrrolo[2,3-d]pyrimidin-4-yl)-1H-pyrazol-1-yl]propanenitrile], the “JAK inhibitor activity relative to its enantiomer” value in the assay with JAK (final products from the enantiomers separated by preparative-HPLC (OD-H)) is listed as “more active than its enantiomer”.

Take `COc1cc2ncnc(Nc3ccc(O)cc3)c2cc1OC` [JANEX-1]: in assay [1], the immunomodulatory activity entry is given as “potent immunomodulatory activity” and the onset of diabetes result is given as “delayed the onset of diabetes”.

For `COc1cc2ncnc(Nc3ccc(O)c(Br)c3)c2cc1OC` [WHI-P-154], the “effect on CD40-induced JAK3 activity, costimulatory molecule expression, IL-12 production and allogeneic stimulatory capacity” value in assay [2] is given as “prevented these effects”.
